Experimental data reported in PubChem BioAssay (NCI).
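Method: 48-hour compound exposure of cells in 96-well plates, five concentrations, linear interpolation of endpoints. GI50 marks 50% less growth. TGI is the concentration that stops growth completely.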

How the values were obtained:
Assay in all cases: growth of human tumour cells (NCI), 48 h
[1] = tested on: 786-0 renal
[2] = tested on: A498 renal
[3] = tested on: A549 NSCLC
[4] = tested on: ACHN renal
[5] = tested on: BT-549 breast
[6] = tested on: CAKI-1 renal
[7] = tested on: CCRF-CEM leukemia
[8] = tested on: COLO 205 colon
[9] = tested on: DU-145 prostate
[10] = tested on: EKVX NSCLC
[11] = tested on: HCC-2998 colon
[12] = tested on: HCT-116 colon
[13] = tested on: HCT-15 colon
[14] = tested on: HL-60(TB) leukemia
[15] = tested on: HOP-62 NSCLC
[16] = tested on: HOP-92 NSCLC
[17] = tested on: HS 578T breast
[18] = tested on: IGROV1 ovarian
[19] = tested on: K-562 leukemia
[20] = tested on: KM12 colon
[21] = tested on: LOX IMVI melanoma
[22] = tested on: M14 melanoma
[23] = tested on: MALME-3M melanoma
[24] = tested on: MCF7 breast
[25] = tested on: MDA-MB-231 breast
[26] = tested on: MDA-MB-435
[27] = tested on: MDA-MB-468 breast
[28] = tested on: MOLT-4 leukemia
[29] = tested on: NCI-H226 lung
[30] = tested on: NCI-H23 lung
[31] = tested on: NCI-H460 lung
[32] = tested on: NCI-H522 lung
[33] = tested on: NCI/ADR-RES ovarian
[34] = tested on: OVCAR-3 ovarian
[35] = tested on: OVCAR-4 ovarian
[36] = tested on: OVCAR-5 ovarian
[37] = tested on: OVCAR-8 ovarian
[38] = tested on: PC-3 prostate
[39] = tested on: RPMI-8226 leukemia
[40] = tested on: RXF 393 renal
[41] = tested on: SF-268 CNS
[42] = tested on: SF-295 CNS
[43] = tested on: SF-539 CNS
[44] = tested on: SK-MEL-2 melanoma
[45] = tested on: SK-MEL-28 melanoma
[46] = tested on: SK-MEL-5 melanoma
[47] = tested on: SK-OV-3 ovarian
[48] = tested on: SN12C renal
[49] = tested on: SNB-19 CNS
[50] = tested on: SNB-75 CNS
[51] = tested on: SR leukemia
[52] = tested on: T-47D breast
[53] = tested on: TK-10 renal
[54] = tested on: U251 CNS
[55] = tested on: UACC-257 melanoma
[56] = tested on: UACC-62 melanoma
[57] = tested on: UO-31 renal

Question: How did the GI50 [1] turn out when `COc1ccc(C(=O)Nc2sc3c(c2C#N)CCC(=O)C3)cc1C(F)(F)F` was run?
Answer: Its GI50 is 1820 nM.

Question: And the TGI [1]?
Answer: Its TGI is 7270 nM.

Question: What about the GI50 [2] of the same molecule?
Answer: Its GI50 is 5740 nM.

Question: What about the TGI [2] of the same molecule?
Answer: Its TGI is 36100 nM.

Question: What about the GI50 [3] of the same molecule?
Answer: The GI50 was 2780 nM.

Question: What about the TGI [3] of the same molecule?
Answer: Its TGI is greater than 100000 nM.

Question: What about the GI50 [4] of the same molecule?
Answer: The GI50 was 375 nM.

Question: What about the TGI [4] of the same molecule?
Answer: Its TGI is 1260 nM.

Question: What about the GI50 [5] of the same molecule?
Answer: The GI50 was 564 nM.

Question: What about the TGI [5] of the same molecule?
Answer: The TGI was 1920 nM.

Question: And the GI50 [6]?
Answer: Its GI50 is 491 nM.

Question: And the TGI [6]?
Answer: Its TGI is 1840 nM.

Question: What about the GI50 [7] of the same molecule?
Answer: Its GI50 is 270 nM.

Question: What about the TGI [7] of the same molecule?
Answer: Its TGI is greater than 100000 nM.

Question: And the GI50 [8]?
Answer: Its GI50 is 582 nM.

Question: What about the TGI [8] of the same molecule?
Answer: Its TGI is 1620 nM.

Question: What about the GI50 [9] of the same molecule?
Answer: Its GI50 is 2910 nM.

Question: What about the TGI [9] of the same molecule?
Answer: The TGI was greater than 30400 nM.

Question: And the GI50 [10]?
Answer: The GI50 was 2350 nM.

Question: And the TGI [10]?
Answer: The TGI was 8760 nM.

Question: What about the GI50 [11] of the same molecule?
Answer: Its GI50 is 1450 nM.

Question: And the TGI [11]?
Answer: Its TGI is 3200 nM.

Question: And the GI50 [12]?
Answer: Its GI50 is 299 nM.

Question: What about the TGI [12] of the same molecule?
Answer: Its TGI is 1580 nM.

Question: And the GI50 [13]?
Answer: Its GI50 is 385 nM.

Question: And the TGI [13]?
Answer: The TGI was 1490 nM.

Question: And the GI50 [14]?
Answer: Its GI50 is 339 nM.

Question: What about the TGI [14] of the same molecule?
Answer: Its TGI is 5780 nM.

Question: What about the GI50 [15] of the same molecule?
Answer: The GI50 was 2650 nM.

Question: What about the TGI [15] of the same molecule?
Answer: Its TGI is 8880 nM.

Question: And the GI50 [16]?
Answer: Its GI50 is 708 nM.

Question: And the TGI [16]?
Answer: The TGI was 2530 nM.

Question: And the GI50 [17]?
Answer: The GI50 was 862 nM.

Question: And the TGI [17]?
Answer: Its TGI is 3680 nM.

Question: What about the GI50 [18] of the same molecule?
Answer: The GI50 was 1290 nM.

Question: What about the TGI [18] of the same molecule?
Answer: Its TGI is 2970 nM.

Question: What about the GI50 [19] of the same molecule?
Answer: The GI50 was 294 nM.

Question: And the TGI [19]?
Answer: The TGI was greater than 100000 nM.

Question: And the GI50 [20]?
Answer: The GI50 was 584 nM.

Question: And the TGI [20]?
Answer: Its TGI is 2210 nM.

Question: And the GI50 [21]?
Answer: Its GI50 is 416 nM.

Question: And the TGI [21]?
Answer: Its TGI is 1650 nM.

Question: What about the GI50 [22] of the same molecule?
Answer: The GI50 was 499 nM.

Question: And the TGI [22]?
Answer: Its TGI is 1920 nM.

Question: What about the GI50 [23] of the same molecule?
Answer: The GI50 was 370 nM.

Question: What about the TGI [23] of the same molecule?
Answer: The TGI was 1420 nM.

Question: What about the GI50 [24] of the same molecule?
Answer: The GI50 was 408 nM.

Question: What about the TGI [24] of the same molecule?
Answer: The TGI was 3150 nM.

Question: What about the GI50 [25] of the same molecule?
Answer: The GI50 was 1140 nM.

Question: And the TGI [25]?
Answer: Its TGI is 2600 nM.

Question: What about the GI50 [26] of the same molecule?
Answer: The GI50 was 594 nM.

Question: What about the TGI [26] of the same molecule?
Answer: The TGI was 2060 nM.

Question: What about the GI50 [27] of the same molecule?
Answer: The GI50 was 495 nM.

Question: And the TGI [27]?
Answer: The TGI was 1480 nM.

Question: What about the GI50 [28] of the same molecule?
Answer: The GI50 was 322 nM.

Question: And the TGI [28]?
Answer: Its TGI is greater than 19700 nM.

Question: And the GI50 [29]?
Answer: The GI50 was 2310 nM.

Question: What about the TGI [29] of the same molecule?
Answer: The TGI was 7090 nM.

Question: And the GI50 [30]?
Answer: Its GI50 is 537 nM.

Question: What about the TGI [30] of the same molecule?
Answer: The TGI was 2710 nM.

Question: What about the GI50 [31] of the same molecule?
Answer: Its GI50 is 2110 nM.

Question: What about the TGI [31] of the same molecule?
Answer: The TGI was 6730 nM.

Question: What about the GI50 [32] of the same molecule?
Answer: The GI50 was 225 nM.

Question: And the TGI [32]?
Answer: The TGI was 753 nM.

Question: What about the GI50 [33] of the same molecule?
Answer: Its GI50 is 1300 nM.

Question: And the TGI [33]?
Answer: Its TGI is 3640 nM.

Question: What about the GI50 [34] of the same molecule?
Answer: The GI50 was 845 nM.

Question: And the TGI [34]?
Answer: Its TGI is 2440 nM.

Question: And the GI50 [35]?
Answer: Its GI50 is 1110 nM.

Question: And the TGI [35]?
Answer: The TGI was 2760 nM.

Question: And the GI50 [36]?
Answer: The GI50 was 1960 nM.

Question: What about the TGI [36] of the same molecule?
Answer: The TGI was 4840 nM.

Question: And the GI50 [37]?
Answer: The GI50 was 1280 nM.

Question: What about the TGI [37] of the same molecule?
Answer: The TGI was 3710 nM.

Question: And the GI50 [38]?
Answer: The GI50 was 317 nM.

Question: What about the TGI [38] of the same molecule?
Answer: The TGI was 4000 nM.

Question: And the GI50 [39]?
Answer: Its GI50 is 145 nM.

Question: And the GI50 [40]?
Answer: Its GI50 is 434 nM.

Question: And the TGI [40]?
Answer: Its TGI is 1690 nM.

Question: What about the GI50 [41] of the same molecule?
Answer: The GI50 was 2030 nM.

Question: What about the TGI [41] of the same molecule?
Answer: The TGI was 6600 nM.

Question: And the GI50 [42]?
Answer: Its GI50 is 1790 nM.

Question: And the TGI [42]?
Answer: Its TGI is 4780 nM.

Question: And the GI50 [43]?
Answer: The GI50 was 343 nM.

Question: What about the TGI [43] of the same molecule?
Answer: Its TGI is 1280 nM.

Question: What about the GI50 [44] of the same molecule?
Answer: Its GI50 is 1670 nM.

Question: What about the TGI [44] of the same molecule?
Answer: Its TGI is 4060 nM.

Question: What about the GI50 [45] of the same molecule?
Answer: The GI50 was 882 nM.

Question: And the TGI [45]?
Answer: Its TGI is 2330 nM.

Question: What about the GI50 [46] of the same molecule?
Answer: Its GI50 is 1350 nM.

Question: What about the TGI [46] of the same molecule?
Answer: The TGI was 2660 nM.

Question: What about the GI50 [47] of the same molecule?
Answer: The GI50 was 2480 nM.

Question: And the TGI [47]?
Answer: Its TGI is 6710 nM.

Question: And the GI50 [48]?
Answer: The GI50 was 966 nM.

Question: What about the TGI [48] of the same molecule?
Answer: The TGI was 6190 nM.

Question: And the GI50 [49]?
Answer: Its GI50 is 2500 nM.

Question: And the TGI [49]?
Answer: Its TGI is 10500 nM.

Question: And the GI50 [50]?
Answer: The GI50 was 1220 nM.

Question: What about the TGI [50] of the same molecule?
Answer: Its TGI is 3680 nM.

Question: What about the GI50 [51] of the same molecule?
Answer: The GI50 was 339 nM.

Question: And the TGI [51]?
Answer: The TGI was greater than 100000 nM.

Question: And the GI50 [52]?
Answer: The GI50 was 352 nM.

Question: What about the TGI [52] of the same molecule?
Answer: The TGI was 2080 nM.

Question: And the GI50 [53]?
Answer: The GI50 was 1210 nM.

Question: And the TGI [53]?
Answer: Its TGI is 7600 nM.

Question: And the GI50 [54]?
Answer: Its GI50 is 723 nM.

Question: What about the TGI [54] of the same molecule?
Answer: Its TGI is 2530 nM.

Question: And the GI50 [55]?
Answer: The GI50 was 1600 nM.

Question: What about the TGI [55] of the same molecule?
Answer: The TGI was 3920 nM.

Question: And the GI50 [56]?
Answer: Its GI50 is 826 nM.

Question: What about the TGI [56] of the same molecule?
Answer: The TGI was 2210 nM.

Question: What about the GI50 [57] of the same molecule?
Answer: Its GI50 is 422 nM.

Question: What about the TGI [57] of the same molecule?
Answer: Its TGI is 1620 nM.
